Laboratory results as given in US5721207A, “Method for treatment of pain” (Innapharma, Inc., priority 1995, dated 1998).

Key:
Type in all cases: in vivo
rat [1] = test: Rat hot plate test, single intravenous elcatonin (Example 10)
Experimental: A total of 24 rats, ranging in weight from 320 to 420 g, was used in this study. Four to eight rats were used for each dose level. […] The doses used were 10, 30, 100 and 300 IU/kg (1.61, 4.83, 16.1 and 48.3 μg/kg, respectively).

rat [2] = test: Rat hot plate test, intrathecal elcatonin with 0.1% human serum albumin (Example 13); conditions: 4.4 IU/kg intrathecal in 0.1% HSA, 5 day multiple administrations (FIG. 9)
Experimental: On each study day, a standard 25% (wt/vol) solution of HSA is diluted under aseptic conditions with physiological saline ([…] of NaCl, USP grade) to achieve the desired stock solution concentration of 0.2% (wt/vol).
Thirty-two male rats (320-420 g) are obtained, adapted, catheterized and recovered as described hereinabove. […] Group II rats are injected intrathecally with a dose of 4.4 IU/kg in physiological saline containing 0.1% HSA, in a volume of 10 μL/kg. Group III rats are injected with physiological saline containing 0.1% HSA, 10 μL/kg. Each dose is followed by a washout of 8 μL of physiological saline.
In each of the study groups, hot plate latencies are determined at 0 minutes (baseline, predose), 1 hour, 3 hours, 6 hours, and 24 hours following intrathecal injections on the 1st, 3rd and 5th study days.

rat [3] = test: Rat hot plate analgesiometric test, dose response of single intrathecal elcatonin (Example 8)
Experimental: The doses tested were 0.2, 0.8, 1.6, 2.4, and 3.6 IU/kg. The desired dose was injected in a volume of 37.5 μL/kg, followed by a catheter wash-out with 10 μL saline, via the intrathecal route.
A total of 113 adult male rats, of weights of 350 g to 400 g, were used. Intrathecal catheters were surgically implanted as described in Example 4.
Data were analyzed for statistical significance, and a point estimate (mean and standard deviation) are used to analyze analgesic activity for each dose of the drug for a selected time period. Nonparametric statistics were calculated to address the level of significance of any difference between control and test group.

rat [4] = test: Rat hot plate test, five consecutive daily intrathecal doses of elcatonin (Example 11); conditions: 4.4 IU/kg intrathecal, five consecutive daily doses (FIG. 7)
Experimental: Intrathecal catheters were implanted in rats as described hereinabove, and a 7-10 day period thereafter allowed for full recovery from the surgical procedures.
Eighteen rats were assigned to three treatment groups of six rats per group. The study is conducted in two treatment phases at one week intervals. Treatment Group I rats receive no treatment. Group II rats receive five consecutive daily intrathecal doses of sterile physiological saline (vehicle control).
For each treatment, hot plate latencies are determined as described in Example 5 herein above at 0 minutes (predose, baseline), 1 hour, 3 hours, and 24 hours following injection on the first, third, and fifth study days.

Substance: [Des-Cys^1,ASU^7 ]-Calcitonin, Eel [Elcatonin]
- Hot Plate Latency (Mean ± SEM) (rat [1]; 10.0 IU/kg (1.61 μg/kg) intravenous single, 0 hr (baseline)): 12.03 ± 1.02 s
- Hot Plate Latency (Mean ± SEM) (rat [1]; 10.0 IU/kg (1.61 μg/kg) intravenous single, 0.25 hr): 11.95 ± 1.40 s
- Hot Plate Latency (Mean ± SEM) (rat [1]; 10.0 IU/kg (1.61 μg/kg) intravenous single, 0.5 hr): 15.64 ± 2.39 s
- Hot Plate Latency (Mean ± SEM) (rat [1]; 10.0 IU/kg (1.61 μg/kg) intravenous single, 1 hr): 14.95 ± 2.92 s
- Hot Plate Latency (Mean ± SEM) (rat [1]; 10.0 IU/kg (1.61 μg/kg) intravenous single, 3 hr): 14.11 ± 0.94 s
- Hot Plate Latency (Mean ± SEM) (rat [1]; 10.0 IU/kg (1.61 μg/kg) intravenous single, 6 hr): 10.45 ± 1.03 s
- Hot Plate Latency (Mean ± SEM) (rat [1]; 10.0 IU/kg (1.61 μg/kg) intravenous single, 24 hr): 8.86 ± 1.23 s
- Hot Plate Latency (Mean ± SEM) (rat [1]; 30.0 IU/kg (4.83 μg/kg) intravenous single, 0 hr (baseline)): 10.71 ± 1.02 s
- Hot Plate Latency (Mean ± SEM) (rat [1]; 30.0 IU/kg (4.83 μg/kg) intravenous single, 0.25 hr): 10.04 ± 0.96 s
- Hot Plate Latency (Mean ± SEM) (rat [1]; 30.0 IU/kg (4.83 μg/kg) intravenous single, 0.5 hr): 12.18 ± 1.22 s
- Hot Plate Latency (Mean ± SEM) (rat [1]; 30.0 IU/kg (4.83 μg/kg) intravenous single, 1 hr): 14.14 ± 1.14 s
- Hot Plate Latency (Mean ± SEM) (rat [1]; 30.0 IU/kg (4.83 μg/kg) intravenous single, 3 hr): 14.26 ± 1.39 s
- Hot Plate Latency (Mean ± SEM) (rat [1]; 30.0 IU/kg (4.83 μg/kg) intravenous single, 6 hr): 15.12 ± 2.20 s
- Hot Plate Latency (Mean ± SEM) (rat [1]; 30.0 IU/kg (4.83 μg/kg) intravenous single, 24 hr): 10.76 ± 1.25 s
- Hot Plate Latency (Mean ± SEM) (rat [1]; 100.0 IU/kg (16.1 μg/kg) intravenous single, 0 hr (baseline)): 13.53 ± 1.63 s
- Hot Plate Latency (Mean ± SEM) (rat [1]; 100.0 IU/kg (16.1 μg/kg) intravenous single, 0.25 hr): 11.05 ± 1.99 s
- Hot Plate Latency (Mean ± SEM) (rat [1]; 100.0 IU/kg (16.1 μg/kg) intravenous single, 0.5 hr): 9.63 ± 1.21 s
- Hot Plate Latency (Mean ± SEM) (rat [1]; 100.0 IU/kg (16.1 μg/kg) intravenous single, 1 hr): 11.20 ± 1.95 s
- Hot Plate Latency (Mean ± SEM) (rat [1]; 100.0 IU/kg (16.1 μg/kg) intravenous single, 3 hr): 14.76 ± 1.19 s
- Hot Plate Latency (Mean ± SEM) (rat [1]; 100.0 IU/kg (16.1 μg/kg) intravenous single, 6 hr): 14.00 ± 1.83 s
- Hot Plate Latency (Mean ± SEM) (rat [1]; 100.0 IU/kg (16.1 μg/kg) intravenous single, 24 hr): 14.30 ± 1.33 s
- Hot Plate Latency (Mean ± SEM) (rat [1]; 300.0 IU/kg (48.3 μg/kg) intravenous single, 0 hr (baseline)): 11.22 ± 0.38 s
- Hot Plate Latency (Mean ± SEM) (rat [1]; 300.0 IU/kg (48.3 μg/kg) intravenous single, 0.25 hr): 11.05 ± 3.82 s
- Hot Plate Latency (Mean ± SEM) (rat [1]; 300.0 IU/kg (48.3 μg/kg) intravenous single, 0.5 hr): 11.65 ± 2.31 s
- Hot Plate Latency (Mean ± SEM) (rat [1]; 300.0 IU/kg (48.3 μg/kg) intravenous single, 1 hr): 12.65 ± 2.09 s
- Hot Plate Latency (Mean ± SEM) (rat [1]; 300.0 IU/kg (48.3 μg/kg) intravenous single, 3 hr): 17.37 ± 4.25 s
- Hot Plate Latency (Mean ± SEM) (rat [1]; 300.0 IU/kg (48.3 μg/kg) intravenous single, 6 hr): 11.55 ± 2.80 s
- Hot Plate Latency (Mean ± SEM) (rat [1]; 300.0 IU/kg (48.3 μg/kg) intravenous single, 24 hr): 10.52 s
- intravenous dose producing a hot plate latency similar to 1.6 IU/kg (0.25 μg/kg) intrathecal (rat [1]; at 0.5 hr): 10.0 IU/kg
- increase in hot plate latencies (rat [1]; intravenous, 10-300 IU/kg): only small increases in hot plate latencies
- time of peak effects (rat [1]; intravenous, 10 IU/kg): 30 min
- dose response effect (rat [1]; intravenous, 10 to 300 IU/kg): No significant dose response effect was observed
- time of peak effects (rat [1]; intravenous, 30-300 IU/kg): 180 to 360 min
- hot plate latency (rat [2]): increase in rat hot plate latency
- antinociceptive response (statistics) (rat [3]; 0.2 IU/kg intrathecal (lowest dose tested)): did not produce a statistically significant response
- Hot Plate Latency (Mean ± SEM) (rat [3]; 0.2 IU/kg intrathecal single, 0 hr (baseline)): 10.6 ± 0.8 s
- Hot Plate Latency (Mean ± SEM) (rat [3]; 0.2 IU/kg intrathecal single, 0.25 hr after administration): 13.0 ± 1.1 s
- Hot Plate Latency (Mean ± SEM) (rat [3]; 0.2 IU/kg intrathecal single, 0.5 hr after administration): 12.9 ± 0.7 s
- Hot Plate Latency (Mean ± SEM) (rat [3]; 0.2 IU/kg intrathecal single, 1 hr after administration): 12.7 ± 0.9 s
- Hot Plate Latency (Mean ± SEM) (rat [3]; 0.2 IU/kg intrathecal single, 3 hr after administration): 13.1 ± 0.7 s
- Hot Plate Latency (Mean ± SEM) (rat [3]; 0.2 IU/kg intrathecal single, 6 hr after administration): 12.1 ± 0.5 s
- Hot Plate Latency (Mean ± SEM) (rat [3]; 0.2 IU/kg intrathecal single, 24 hr after administration): 10.8 ± 0.7 s
- Hot Plate Latency (Mean ± SEM) (rat [3]; 0.8 IU/kg intrathecal single, 0 hr (baseline)): 9.8 ± 0.8 s
- Hot Plate Latency (Mean ± SEM) (rat [3]; 0.8 IU/kg intrathecal single, 0.25 hr after administration): 15.1 ± 1.5 s
- Hot Plate Latency (Mean ± SEM) (rat [3]; 0.8 IU/kg intrathecal single, 0.5 hr after administration): 15.0 ± 1.5 s
- Hot Plate Latency (Mean ± SEM) (rat [3]; 0.8 IU/kg intrathecal single, 1 hr after administration): 15.2 ± 1.3 s
- Hot Plate Latency (Mean ± SEM) (rat [3]; 0.8 IU/kg intrathecal single, 3 hr after administration): 20.0 ± 2.8 s
- Hot Plate Latency (Mean ± SEM) (rat [3]; 0.8 IU/kg intrathecal single, 6 hr after administration): 12.3 ± 1.0 s
- Hot Plate Latency (Mean ± SEM) (rat [3]; 0.8 IU/kg intrathecal single, 24 hr after administration): 11.7 ± 1.0 s
- antinociceptive response (statistics) (rat [3]; 0.8 and 1.6 IU/kg intrathecal): significant antinociception
- Hot Plate Latency (Mean ± SEM) (rat [3]; 1.6 IU/kg intrathecal single, 0 hr (baseline)): 9.2 ± 0.5 s
- Hot Plate Latency (Mean ± SEM) (rat [3]; 1.6 IU/kg intrathecal single, 0.25 hr after administration): 16.4 ± 1.2 s
- Hot Plate Latency (Mean ± SEM) (rat [3]; 1.6 IU/kg intrathecal single, 0.5 hr after administration): 16.0 ± 1.0 s
- Hot Plate Latency (Mean ± SEM) (rat [3]; 1.6 IU/kg intrathecal single, 1 hr after administration): 16.4 ± 1.1 s
- Hot Plate Latency (Mean ± SEM) (rat [3]; 1.6 IU/kg intrathecal single, 3 hr after administration): 15.1 ± 0.9 s
- Hot Plate Latency (Mean ± SEM) (rat [3]; 1.6 IU/kg intrathecal single, 6 hr after administration): 13.6 ± 0.8 s
- Hot Plate Latency (Mean ± SEM) (rat [3]; 1.6 IU/kg intrathecal single, 24 hr after administration): 10.9 ± 0.4 s
- Hot Plate Latency (Mean ± SEM) (rat [3]; 2.4 IU/kg intrathecal single, 0 hr (baseline)): 9.0 ± 0.7 s
- Hot Plate Latency (Mean ± SEM) (rat [3]; 2.4 IU/kg intrathecal single, 0.25 hr after administration): 20.0 ± 1.5 s
- Hot Plate Latency (Mean ± SEM) (rat [3]; 2.4 IU/kg intrathecal single, 0.5 hr after administration): 20.1 ± 1.9 s
- Hot Plate Latency (Mean ± SEM) (rat [3]; 2.4 IU/kg intrathecal single, 1 hr after administration): 19.5 ± 1.8 s
- Hot Plate Latency (Mean ± SEM) (rat [3]; 2.4 IU/kg intrathecal single, 3 hr after administration): 21.8 ± 2.1 s
- Hot Plate Latency (Mean ± SEM) (rat [3]; 2.4 IU/kg intrathecal single, 6 hr after administration): 12.6 ± 1.2 s
- Hot Plate Latency (Mean ± SEM) (rat [3]; 2.4 IU/kg intrathecal single, 24 hr after administration): 10.3 ± 1.2 s
- antinociceptive response (statistics) (rat [3]; 2.4 and 3.6 IU/kg intrathecal): strong antinociception
- Hot Plate Latency (Mean ± SEM) (rat [3]; 3.6 IU/kg intrathecal single, 0 hr (baseline)): 10.4 ± 0.9 s
- Hot Plate Latency (Mean ± SEM) (rat [3]; 3.6 IU/kg intrathecal single, 0.25 hr after administration): 19.4 ± 1.6 s
- Hot Plate Latency (Mean ± SEM) (rat [3]; 3.6 IU/kg intrathecal single, 0.5 hr after administration): 21.4 ± 1.8 s
- Hot Plate Latency (Mean ± SEM) (rat [3]; 3.6 IU/kg intrathecal single, 1 hr after administration): 23.5 ± 2.5 s
- Hot Plate Latency (Mean ± SEM) (rat [3]; 3.6 IU/kg intrathecal single, 3 hr after administration): 19.5 ± 1.0 s
- Hot Plate Latency (Mean ± SEM) (rat [3]; 3.6 IU/kg intrathecal single, 6 hr after administration): 15.7 ± 1.3 s
- Hot Plate Latency (Mean ± SEM) (rat [3]; 3.6 IU/kg intrathecal single, 24 hr after administration): 10.2 ± 1.0 s
- dose relation of hot plate latencies (rat [3]; intrathecal, 0.2-3.6 IU/kg): increased hot plate latencies in a dose-related fashion
- onset of antinociception after injection (rat [3]; intrathecal, 0.2-3.6 IU/kg): ≤ 15 min
- duration of antinociception post-injection (rat [3]; intrathecal, all doses used): at least 6 hours
- time of peak antinociception (rat [3]; intrathecal, all doses used): 30 to 60 min
- hot plate latency by 24 hr post-injection (rat [3]; intrathecal, most tests): returned to baseline
- antinociception at 6 hrs after injection (rat [3]; intrathecal, three higher doses): Significant antinociception was also apparent
- antinociceptive results, intrathecal compared with intravenous (rat [3]; rat hot plate): unexpectedly improved antinociceptive results as compared with intravenous injection
- hot plate latency (rat [4]): hot plate latency is increased
- hot plate latency at 24 hr after each successive injection (rat [4]): greater hot plate latency, and a cumulative analgesic effect over time
